Source: US5670479A, “α-ketoamide derivatives as inhibitors of thrombosis” (Corvas International, Inc., priority 1994, dated 1997)

Key:
[1] = target: T1, a-thrombin (Homo sapiens, UniProt P00734); experiment: Thrombin-induced clotting of purified fibrinogen; assay type: biochemical; conditions: preincubation with a-thrombin 0, 30, 60 minutes before fibrinogen
Method: The clotting time of fibrinogen following the addition of the thrombin/inhibitor complex was measured optically using the Coag-A-Mate XC automated coagulometer (General Diagnostics, Organon Technica, Oklahoma City, Okla.).
This inhibition is reflected as an increase in the relative clotting time which is the ratio of the […]. The control clotting time in this assay is 16.2±0.78 sec.

[2] = system: washed human platelets; experiment: Thrombin-induced aggregation in washed human platelets; assay type: cell-based
Method: Washed human platelets were prepared from freshly isolated venous blood obtained from normal, healthy volunteers who had not taken any medication which might affect platelet function, according to the procedure of Connolly, T. M. et al., J. Biol. Chem., 267: 6893. (1992). Inhibitors, were added in a volume of […] to […] of prewarmed washed platelets in a siliconized glass cuvette (Chronolog Corp., Hayertown, Pa.) followed by […] of 0.25M CaCl2. The rate and extent of aggregation were measured for 5-15 minutes by the change in light transmission in a stirred cuvette, following the addition of […] of a-thrombin (final concentration 2 nM), using a Chronolog Whole Blood Aggregometer equipped with the Aggro/Link data acquisition system (Chronolog Corp., Hayertown, Pa.).

[3] = system: Male Harlan Sprague Dawley rats; experiment: Venous stasis model in rats; assay type: in vivo; conditions: rat; for % Clot: mean ± S.E.M.
Method: This is one of the most commonly used models in the evaluation of antithrombotic compounds. Hladovec, J. Thromb. […] Talbot, M. D., et. al., Thromb.
Male Harlan Sprague Dawley rats (420-450 g) were acclimated at least 72 hours prior to use. The animals were fasted for 12 hours prior to surgery with free access to water. The animals were anesthetized with a sodium pentobarbital (Nembutal) given intraperitoneally at a dose of 50 mg/kg body weight and placed on a isothermal pad to maintain body temperature. The level of anesthesia was monitored every 15 minutes by: neuro-response to a tail pinch, respiration and body core temperature. The desired depth of surgical anesthesia was maintained by administering subsequent doses (5 mg/kg) intravenously. The left femoral artery was catheterized with polyethylene tubing (PE50) using standard procedures for blood pressure monitoring and blood sampling. The left and right femoral veins were catheterized with PE50 tubing for delivery of anesthetic and test compounds respectively.
Blood pressure, heart rate, core temperature and respiration were monitored continuously.
The abdomen of the animals is opened by making a vertical midline incision followed by isolation of the IVC using dissection. The segment extends from below the renal to above the iliac vessels (about 2 cm in length). The peripheral blood vessels are tied off and a ligature is loosely placed at the distal and proximal ends of the isolated segment. Rabbit brain thromboplastin (RBT)(Sigma Chemical Co., St. Louis Mo.) is prepared by resuspending the contents of the vial with 2 mL of sterile saline pre-warmed to 37° C. At the end of the 30 minute infusion period, RBT is systemically administered as a bolus injection (1.5 mL/kg) via the femoral catheter. Stasis is induced within the isolated IVC segment by securing the proximal and distal ligature 10 sec following the administration of the RBT. Following a 30 minute period of stasis the tied off IVC segment is removed and the contents weighed. Clot formation was defined as %clot: [Weight of the isolated clot/(Weight of the intact segment-the weight of the empty segment)] ×100. This method was used to correct for slight differences in segment size and fluid content.
Following termination of the experiment the animal was euthanized with a 120 mg/kg dose of Nembutal.

[4] = system: baboons; conditions: baboon; dose which gives a 50% inhibition of platelet deposition; other direct antithrombins evaluated earlier in this model; cited from earlier work
[5] = system: baboons; conditions: baboon, other direct antithrombins evaluated earlier in this model, cited from earlier work
[6] = target: thrombin (Homo sapiens, UniProt P00734); conditions: reported in literature; cited from earlier work
[7] = target: T1, a-thrombin; experiment: Inhibition of fluid-phase thrombin (FPA generation in citrated plasma); assay type: biochemical; design: Purified human a-thrombin; purchased Enzyme Research Laboratories, Inc; conditions: 60 min, 37° C., compound 8 18.75 nM, Hirulog-1 500 nM, rHIR 4 nM, FIG. 5A
Method: I. et.al. J. Clin. Invest., 86: 385-391 (1990). Human a-thrombin (2 U/ml) was incubated with citrated plasma for 60 minutes at 37° C. in the absence or presence of varying concentrations of each of the inhibitors. At timed intervals, 100 μl aliquots were removed and the reaction was terminated by the addition of […] (5 μM, final concentration). Unreacted fibrinogen was then precipitated with ethanol, and the ethanol supernatants were assayed for fibrinopeptide A (FPA). Thrombin addition to plasma results in rapid FPA generation which reaches a plateau in minutes as the thrombin is complexed and inactivated by fluid-phase antiproteases.(e.g. antithrombin III).

## (D-Phe)-Pro-Arg-Pro-(Gly)4 -Asn-Gly-Asp-Phe-Glu-Glu-Ile-Pro-Glu-Glu-Tyr-Leu-OH [Hirulog-1]
[1]
  proteolytic inactivation by thrombin on preincubation: sensitive to proteolytic degradation
[2]; 20 nM (compound 8), same or higher concentrations (Hirulog-1), FIG. 4
  persistence of inhibition of aggregation over the 15 minute assay: did not cause sustained inhibition
[2]; a-thrombin 2 nM, extent of aggregation over 1 minute, mean ± SD of three
  IC50: 16 ± 3 nM
[3]; 0.1 mg/kg i.v. bolus + 40 mg/kg/min i.v. infusion
  % Clot: 25.75 ± 3.71%
[3]; 0.1 mg/kg i.v. bolus + 60 mg/kg/min i.v. infusion
  % Clot: 26.50 ± 3.59%
[3]; 0.1 mg/kg i.v. bolus + 80 mg/kg/min i.v. infusion
  % Clot: 25.75 ± 0.41%
[3]; summary in words
  effect on venous thrombus formation induced by stasis and thromboplastin: did not have any effect
[4]
  Antithrombotic Effects ED50: 125 nmol/kg/min
[5]; control 32 sec
  Antihemostatic Effects APTT: > 300 s
[5]; control 4 min
  Antihemostatic Effects Bleeding Time: 21 min
[6]
  Ki: 2.56 nM
[7]
  inhibition of fluid-phase a-thrombin-mediated FPA generation: only transient inhibition
